Test results taken from patent US20210284647A1, “N-(3-(IMIDAZO[1,2-B]PYRIDAZIN-3-YLETHYNYL)-4-METHYLPHENYL)-5-PHENYL-4,5-DIHYDRO-1H-PYRAZOLE-1-CARBOXAMIDE DERIVATIVE, AND PHARMACEUTICAL COMPOSITION CONTAINING SAME AS ACTIVE INGREDIENT FOR TREATING KINASE-RELATED DISEASES” (VORONOIBIO INC., priority 2018, published 2021).
Counter-ions that a name gives are not always drawn.

Assays:
human GST-RIPK1 = biological target: T1, human GST-RIPK1 (Homo sapiens, UniProt Q13546); assay: RIPK1 inhibitory activity (ADP-Glo kinase assay); type: biochemical; conditions: human GST-RIPK1 10 ng, ATP 50 uM, 25° C. for 4 hours, read-out: Enzyme IC50
T1 construct: GST; purchased signalchem
T1 sequence (Q13546 1-375 limits assumed): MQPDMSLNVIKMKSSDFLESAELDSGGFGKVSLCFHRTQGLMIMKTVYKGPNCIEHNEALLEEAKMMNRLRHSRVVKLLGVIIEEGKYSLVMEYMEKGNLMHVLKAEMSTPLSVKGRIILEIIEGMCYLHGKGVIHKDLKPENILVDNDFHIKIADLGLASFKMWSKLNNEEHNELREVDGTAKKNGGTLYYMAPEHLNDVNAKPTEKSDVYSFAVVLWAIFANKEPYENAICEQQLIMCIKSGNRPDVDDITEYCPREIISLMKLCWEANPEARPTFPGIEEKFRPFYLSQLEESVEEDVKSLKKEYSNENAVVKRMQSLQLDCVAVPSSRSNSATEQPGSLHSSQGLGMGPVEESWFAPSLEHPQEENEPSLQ
How it was run: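 Purified human GST-RIPK1 (10 ng) was reacted with 50 uM ATP and substrate in Tris-HCl pH 7.4, MgCl2, BSA, DTT buffer for 4 h at 25 °C. ADP formed was read by ADP-Glo luminescence. IC50 is relative to solvent control, from three data sets.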

[1] = system: human Jurkat T cells deficient in FADD; assay: Cell protection effect under apoptosis-inducing condition (TNF-α); type: cell-based; conditions: 40 ng of TNF-α, 50 hours, CellTiter-Glo, read-out: I2.I Cell EC50
How it was run: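 FADD-deficient Jurkat cells (10,000/well) were cultured for 24 h, then exposed to TNF-α (40 ng) plus compound in a 3-fold series from 1 µM top (0.05% DMSO) for 50 h. Viability was read by CellTiter-Glo luminescence. EC50 is the concentration giving 50% inhibition of apoptosis relative to solvent control.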

Row | IC50 (human GST-RIPK1) | EC50 [1] | Structure (SMILES)
1 | 1.1 nM | 106 nM | O=C(Nc1cccc(C#Cc2cnc3cccnn23)c1)N1N=CCC1c1ccncc1 (stereo not drawn) [Example 38, N-(3-(imidazo[1,2-b]pyridazin-3-ylethynyl)phenyl)-5-(pyridin-4-yl)-4,5-dihydro-1H-pyrazole-1-carboxamide hydrochloride]
2 | 7.68 nM | 1.7 nM | Cc1ccc(NC(=O)N2N=CCC2c2cc(F)cc(F)c2)cc1C#Cc1cnc2cccnn12 (stereo not drawn) [Example 4, 5-(3,5-difluorophenyl)-N-(3-(imidazo[1,2-b]pyridazin-3-ylethynyl)-4-methylphenyl)-4,5-dihydro-1H-pyrazole-1-carboxamide 2,2,2-trifluoroacetate]
3 | 47.4 nM | 0.35 nM | Cc1ccc(NC(=O)N2N=CCC2c2ccc(F)cc2)cc1C#Cc1cnc2cccnn12 (stereo not drawn) [Example 11, 5-(4-fluorophenyl)-N-(3-(imidazo[1,2-b]pyridazin-3-ylethynyl)-4-methylphenyl)-4,5-dihydro-1H-pyrazole-1-carboxamide 2,2,2-trifluoroacetate]
